In patent US6787543B2, “Benzhydryl derivatives” (Fujisawa Pharmaceutical Co., Ltd., priority 2002, dated 2004):

How the values were obtained:
emesis in the dog = test: Emesis in the Dog (apomorphine-induced retching and vomiting); format: in vivo; details: adult female dogs; test compound i.v. at 1.0 mg/kg; 5 min later subcutaneous apomorphine (0.1 mg/0.5 ml/kg); observed for 60 min
Procedure: Individually housed adult female dogs (8 to 15 kg) were given an i.v. injection of a solution containing a test compound. 5 Min later the emetic responses (retching and vomiting) were induced by administration of subcutaneous apomorphine (0.1 mg/0.5 ml/kg) and observed for the next 60 min. The timing and number of retches and vomits observed were recorded for each animal. An individual animal was tested with at least 10 days between experiments.

Row | melting point | Compound | inhibition rate of emesis (emesis in the dog) [%]
1 | 167 to 171 °C | CC(=O)N1CCN2[C@H](CN(Cc3cc(-n4nnnc4C(F)(F)F)ccc3OC(C)C)C[C@H]2C(c2ccccc2)c2ccccc2)C1.Cl.Cl | –
2 | 150 to 155 °C | COc1ccc(-n2nnnc2C(F)(F)F)cc1CN1C[C@@H]2CN(S(=O)(=O)C(C)C)CCN2[C@H](C(c2ccccc2)c2ccccc2)C1.Cl.Cl | –
3 | – | COC(=O)N1CCN2[C@H](CN(Cc3cc(-n4nnnc4C(F)(F)F)ccc3OC)C[C@H]2C(c2ccccc2)c2ccccc2)C1.Cl.Cl [Example 28, (6R,9aR)-6-benzhydryl-8-[2-methoxy-5-[5-(trifluoromethyl)-1H-tetrazol-1-yl]benzyl]octahydropyrazino[1,2-a]pyrazine-2-carboxylic acid methyl ester dihydrochloride] | 90
4 | 146 to 165 °C | CCCS(=O)(=O)N1CCN2[C@H](CN(Cc3cc(-n4nnnc4C(F)(F)F)ccc3OC)C[C@H]2C(c2ccccc2)c2ccccc2)C1.Cl.Cl | –
5 | 170 to 173 °C | COc1cc(OC)c(CN2C[C@@H]3CN(C(C)=O)CCN3[C@H](C(c3ccccc3)c3ccccc3)C2)c(OC)c1.Cl.Cl | –
6 | 147 to 150 °C | COc1ccc(-n2nnnc2C(F)(F)F)cc1CN1C[C@@H]2CN(C(=O)OC(C)C)CCN2[C@H](C(c2ccccc2)c2ccccc2)C1.Cl.Cl | –
7 | 162 to 165 °C | CCOc1ccc(-n2nnnc2C(F)(F)F)cc1CN1C[C@@H]2CN(C(C)=O)CCN2[C@H](C(c2ccccc2)c2ccccc2)C1.Cl.Cl | –
8 | 210 to 215 °C | COc1ccc(-c2ccncc2)cc1CN1C[C@@H]2CN(C(C)=O)CCN2[C@H](C(c2ccccc2)c2ccccc2)C1.Cl.Cl.Cl | –
9 | 143 to 146 °C | CCS(=O)(=O)N1CCN2[C@H](CN(Cc3cc(-n4nnnc4C(F)(F)F)ccc3OC)C[C@H]2C(c2ccccc2)c2ccccc2)C1.Cl.Cl | –
10 | 153 to 156 °C | CCOC(=O)N1CCN2[C@H](CN(Cc3cc(-n4nnnc4C(F)(F)F)ccc3OC)C[C@H]2C(c2ccccc2)c2ccccc2)C1.Cl.Cl | –
11 | 177 to 181 °C | COc1ccc(-c2ccsc2)cc1CN1C[C@@H]2CN(C(C)=O)CCN2[C@H](C(c2ccccc2)c2ccccc2)C1.Cl.Cl | –
12 | 171 to 175 °C | CCC(=O)N1CCN2[C@H](CN(Cc3cc(-n4nnnc4C(F)(F)F)ccc3OC)C[C@H]2C(c2ccccc2)c2ccccc2)C1.Cl.Cl | –
13 | 147 to 150 °C | COc1ccc(C(F)(F)F)cc1CN1C[C@@H]2CN(C(C)=O)CCN2[C@H](C(c2ccccc2)c2ccccc2)C1.Cl.Cl | –
14 | 173 to 177 °C | COc1ccc(-c2ccoc2)cc1CN1C[C@@H]2CN(C(C)=O)CCN2[C@H](C(c2ccccc2)c2ccccc2)C1.Cl.Cl | –
15 | 162 to 166 °C | CCCC(=O)N1CCN2[C@H](CN(Cc3cc(-n4nnnc4C(F)(F)F)ccc3OC)C[C@H]2C(c2ccccc2)c2ccccc2)C1.Cl.Cl | –
16 | 138 to 150 °C (dec.) | COc1ccc(-n2nnnc2C(F)(F)F)cc1CN1C[C@@H]2CN(C(=O)CC(C)C)CCN2[C@H](C(c2ccccc2)c2ccccc2)C1.Cl.Cl | –
17 | 205 to 210 °C | COc1ccncc1CN1C[C@@H]2CN(C(C)=O)CCN2[C@H](C(c2ccccc2)c2ccccc2)C1.Cl.Cl.Cl | –
18 | 172 to 175 °C | COc1ccc(-n2nnnc2C(F)(F)F)cc1CN1C[C@@H]2CN(C(=O)C(C)C)CCN2[C@H](C(c2ccccc2)c2ccccc2)C1.Cl.Cl | –
